This test has as its target Metabotropic glutamate receptor 4 (Homo sapiens, UniProt Q14833). The experiment in a line: Ca2+ Mobilization In Vitro Assay: About 24 hrs before an experiment, 5×10^4 cells/well were seeded in poly-D-lysine coated, black/clear-bottomed 96-well plates. The cells were loaded with 2.5 μM Fluo-4AM in loading buffer (1×HBSS, 20 mM HEPES) for 1 hr at 37° C. and washed five times with loading buffer. The cells were transferred into a Functional Drug Screening System 7000 (Hamamatsu, Paris, France), and 11 half logarithmic serial dilutions of test compound at 37° C. were added and the cells were incubated for 10-30 min. with on-line recording of fluorescence. Following this pre-incubation step, the agonist (2S)-2-amino-4-phosphonobutanoic acid (L-AP4) was added to the cells at a concentration corresponding to EC20 with on-line recording of fluorescence; in order to account for day-to-day variations in the responsiveness of cells, the EC20 of L-AP4 was determined immediately ahead of each experiment by recording of a full dose-response curve of L-AP4. Responses were measured as peak increase in fluorescence minus basal (i.e. fluorescence without addition of L-AP4), normalized to the maximal stimulatory effect obtained with saturating concentrations of L-AP4. Graphs were plotted with the % maximal stimulatory using XLfit, a curve fitting program that iteratively plots the data using Levenburg Marquardt algorithm. […].

Chain of Metabotropic glutamate receptor 4 (Q14833 whole entry): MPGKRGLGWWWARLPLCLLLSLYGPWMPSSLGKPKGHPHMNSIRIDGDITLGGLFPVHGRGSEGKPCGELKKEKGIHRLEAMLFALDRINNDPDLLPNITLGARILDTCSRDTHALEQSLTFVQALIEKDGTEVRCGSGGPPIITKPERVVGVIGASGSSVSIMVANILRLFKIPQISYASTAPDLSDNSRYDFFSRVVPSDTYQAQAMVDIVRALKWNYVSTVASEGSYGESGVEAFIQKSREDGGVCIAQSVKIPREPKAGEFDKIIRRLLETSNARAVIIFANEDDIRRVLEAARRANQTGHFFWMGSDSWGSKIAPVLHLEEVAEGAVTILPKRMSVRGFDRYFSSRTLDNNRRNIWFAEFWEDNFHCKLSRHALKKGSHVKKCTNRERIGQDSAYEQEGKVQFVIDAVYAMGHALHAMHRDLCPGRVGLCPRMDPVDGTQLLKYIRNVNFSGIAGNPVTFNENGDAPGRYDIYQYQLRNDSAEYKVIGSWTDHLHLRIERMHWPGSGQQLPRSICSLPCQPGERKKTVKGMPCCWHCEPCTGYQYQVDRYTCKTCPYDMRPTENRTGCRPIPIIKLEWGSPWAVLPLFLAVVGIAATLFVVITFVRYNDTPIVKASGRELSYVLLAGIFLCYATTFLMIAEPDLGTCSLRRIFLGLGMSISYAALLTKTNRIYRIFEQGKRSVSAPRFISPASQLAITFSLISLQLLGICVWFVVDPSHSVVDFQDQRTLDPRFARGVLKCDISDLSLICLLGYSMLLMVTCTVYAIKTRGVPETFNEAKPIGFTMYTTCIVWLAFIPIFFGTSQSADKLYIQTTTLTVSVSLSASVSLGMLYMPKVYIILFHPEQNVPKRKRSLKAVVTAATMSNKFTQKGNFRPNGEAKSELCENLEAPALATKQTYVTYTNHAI

In turn, `O=c1[nH]c2ncsc2c(=O)n1-c1c(F)cc(C#Cc2ccccc2)cc1F` had a half-maximal effective concentration (EC50) of 187 nM.

Source of the values: ChEMBL document CHEMBL5725383, “Ethynyl derivatives” (2017).
